Experiment [1] deals with T1, SIRT1 (Homo sapiens, UniProt Q96EB6).
T1 sequence (Q96EB6 1-747): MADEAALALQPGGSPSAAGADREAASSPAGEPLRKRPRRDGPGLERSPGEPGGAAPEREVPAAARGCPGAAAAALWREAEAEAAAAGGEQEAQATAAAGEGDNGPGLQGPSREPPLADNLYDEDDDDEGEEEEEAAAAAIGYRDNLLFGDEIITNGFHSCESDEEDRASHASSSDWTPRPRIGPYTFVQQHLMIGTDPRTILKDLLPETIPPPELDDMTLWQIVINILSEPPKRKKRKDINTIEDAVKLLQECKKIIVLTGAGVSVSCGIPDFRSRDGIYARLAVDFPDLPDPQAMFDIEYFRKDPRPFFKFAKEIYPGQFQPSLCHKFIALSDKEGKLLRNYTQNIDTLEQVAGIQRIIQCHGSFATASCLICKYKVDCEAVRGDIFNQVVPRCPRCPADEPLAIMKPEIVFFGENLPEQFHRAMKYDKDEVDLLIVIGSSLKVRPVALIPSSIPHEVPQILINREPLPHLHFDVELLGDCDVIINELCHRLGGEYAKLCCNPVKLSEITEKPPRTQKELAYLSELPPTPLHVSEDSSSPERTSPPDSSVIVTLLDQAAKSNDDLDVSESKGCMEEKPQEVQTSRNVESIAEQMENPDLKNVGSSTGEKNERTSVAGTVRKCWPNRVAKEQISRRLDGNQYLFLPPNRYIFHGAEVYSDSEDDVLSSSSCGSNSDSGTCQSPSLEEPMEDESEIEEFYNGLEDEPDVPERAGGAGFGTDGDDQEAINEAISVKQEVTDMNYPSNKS
The experiment is described as follows: Fluorescence polarization or mass spectrometry based assay to identify modulators of SIRT1 activity.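 Further: deacetylation of a fluorophore-tagged p53-derived acetyl peptide by SIRT1, detected as fluorescence polarization after trypsin cleavage and streptavidin binding, compounds tested at 11 doses from 0.7 to 100 µM.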 The experiment is classed as biochemical. The conditions noted are these: activation of SIRT1 (Table 3); read-out: ED50 (the source's name). A general note: In fluorescence polarisation assays a small probe gives low polarisation when free and higher when bound to something large.

The target of experiment [2] is T2, human SIRT3 (Homo sapiens, UniProt Q9NTG7).
T2 sequence (Q9NTG7 102-399): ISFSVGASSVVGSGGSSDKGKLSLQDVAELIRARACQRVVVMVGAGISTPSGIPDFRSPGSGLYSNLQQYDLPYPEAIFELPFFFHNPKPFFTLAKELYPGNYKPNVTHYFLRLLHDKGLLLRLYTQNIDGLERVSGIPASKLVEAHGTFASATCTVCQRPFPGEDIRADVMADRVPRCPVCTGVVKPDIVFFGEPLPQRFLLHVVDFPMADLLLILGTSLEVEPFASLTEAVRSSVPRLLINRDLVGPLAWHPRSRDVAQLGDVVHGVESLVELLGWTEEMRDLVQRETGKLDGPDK
The experiment is described as follows: Fluorescence polarization assay to identify modulators of SIRT3 activity. The conditions noted are these: for EC50: activation of SIRT3 (Table 5), read-out: ED50 (the source's name); for IC50: inhibition of SIRT3 (Table 6). The experiment is classed as biochemical. An excerpt:
A fluorescence polarization assay was used to identify modulators of SIRT3 activity. The same assay may be used to identify modulators of any sirtuin protein. The assay utilizes a peptide substrate based on a fragment of Histone H4, a known sirtuin deacetylation target. The substrate contains a peptide having 14 amino acid residues as follows: Biotin-GASSHSK(Ac)VLK(MR121) (SEQ ID NO: 3) wherein K(Ac) is an acetylated lysine residue. The peptide is labeled with the fluorophore MR121 (excitation 635 nm/emission 680 nm) at the C-terminus and biotin at the N-terminus.
The peptide substrate is exposed to a sirtuin protein in the presence of NAD^+ to allow deacetylation of the substrate and render it sensitive to cleavage by trypsin. Trypsin is then added and the reaction is carried to completion (i.e., the deacetylated substrate is cleaved) releasing the MR121 fragment. Streptavidin is then added to the reaction where it can bind both the uncleaved substrate (i.e., any remaining acetylated substrate) and the non-fluorescent portion of the cleaved peptide substrate (i.e., the biotin containing fragment). The fluorescence polarization signal observed for the full length peptide substrate bound to streptavidin is higher than the fluorescence polarization signal observed for the released MR121 C-terminal fragment. Therefore, the fluorescence polarization obtained is inversely proportional to the level of deacetylation (e.g., the signal is inversely proportional to the activity of the sirtuin protein). Results are read on a microplate fluorescence polarization reader (Molecular Devices Spectramax MD) with appropriate excitation and emission filters.
The fluorescence polarization assays may be conducted as follows: 0.5 μM peptide substrate and 50 μM βNAD^+ is incubated with 2 nM of SIRT3 for 60 minutes at 37° C. in a reaction buffer (25 mM Tris-acetate pH8, 137 mM Na—Ac, 2.7 mM K—Ac, 1 mM Mg—Ac, 0.1% Pluronic F127, 10 mM CaCl2, 1 mM TCEP, 0.025% BSA). Test compounds are solubilized in DMSO and are added to the reaction at 11 concentrations ranging from 0.7 μM to 100 μM. The SIRT3 protein used in the assays corresponded to amino acid residues 102-399 of human SIRT3 with an N-terminal His-tag. The protein was overexpressed in E. coli and purified on a nickel chelate column using standard techniques. After the 60 minute incubation with SIRT3, nicotinamide is added to the reaction to a final concentration of 3 mM to stop the deacetylation reaction and 0.5 μg/mL of trypsin is added to cleave the deacetylated substrate. The reaction is incubated for 30 minutes at 37° C. in the presence of 1 mM streptavidin. Fluorescent polarization is determined at excitation (650 nm) and emissions (680 nm) wavelengths. The level of activity of the sirtuin protein in the presence of the various concentrations of test compound are then determined and may be compared to the level of activity of the sirtuin protein in the absence of the test compound, and/or the level of activity of the sirtuin proteins in the negative control (e.g., level of inhibition) and positive control (e.g., level of activation) described below.
A control for activation of sirtuin activity is conducted using 0.5 μg/mL of sirtuin protein to reach baseline deacetylation of the substrate (e.g., to determine normalized sirtuin activity).

For the molecule `Cc1csc(NC(=O)CSCC(=O)O)c1-c1nc2ccccc2s1` [Compound 5], the figures for the EC50 in experiment [1] and in experiment [2] were < 50 µM and 101 to 150 µM, respectively.
Turning to `Nc1nc2ccc(-c3nc4ccccc4[nH]3)cc2s1` [Compound 14], the EC50 in experiment [1] and in experiment [2] was 101 to 150 µM each time.
`COc1ccc(-c2nc3c(C(=O)NC(CC(=O)O)C4CCCCC4)cccn3c2NC(C)(C)C)cc1[N+](=O)[O-]` (centres unmarked) [Compound 29]: the EC50 in experiment [1] and in experiment [2] was > 150 µM each time.
For `N#Cc1ccc(-c2nc3c(C(=O)NC(CC(=O)O)C4CCCCC4)cccn3c2NCc2ccccc2)cc1` (centres unmarked) [Compound 32], the EC50 in experiment [1] was 51 to 100 µM; in experiment [2] it was < 50 µM.
For the molecule `CC(=O)Nc1ccc(-c2nc3c(C(=O)NC(CC(=O)O)C4CCCCC4)cccn3c2NCc2ccccc2)cc1` (centres unmarked) [Compound 37], the EC50 in experiment [1] was in the range of 51 to 100 µM; in experiment [2], 101 to 150 µM.
Turning to `CC(NC(=O)c1cccn2c(NCC3CCCO3)c(-c3ccc(Cl)cc3)nc12)C(=O)NCCC#N` (centres unmarked) [Compound 43], the EC50 in experiment [1] was < 50 µM; in experiment [2] it was 51 to 100 µM.
In the case of `CC(NC(=O)c1cccn2c(NCC3CCCO3)c(-c3ccc(N(C)C)cc3)nc12)C(=O)NCCC#N` (centres unmarked) [Compound 45], the results for the EC50 in experiment [1] and in experiment [2] were 51 to 100 µM and > 150 µM, respectively.
For `COc1ccc(-c2nc3c(C(=O)NC(CC(=O)O)c4cccc(C)c4)cccn3c2Nc2c(C)cccc2C)cc1[N+](=O)[O-]` (centres unmarked) [Compound 67], the EC50 in experiment [2] is > 150 µM.
`COc1cccc(-c2nc3c(C(=O)NC(CC(=O)O)C4CCCCC4)cccn3c2NCc2ccccc2)c1` (centres unmarked) [Compound 69]: in experiment [2], the EC50 is 51 to 100 µM.
On the same count and under the same terms, the same measure for `Cc1cccc(C)c1Nc1c(-c2ccc(C#N)cc2)nc2c(C(=O)NC(CC(=O)O)C3CCCCC3)cccn12` (centres unmarked) [Compound 70]: > 150 µM; for `CCCCNc1c(-c2ccc(F)cc2)nc2c(C(=O)NC(CC(=O)O)c3cccc([N+](=O)[O-])c3)cccn12` (centres unmarked) [Compound 71]: 51 to 100 µM.
As to `CCCCNc1c(-c2ccc(C#N)cc2)nc2c(C(=O)NC(CC(=O)O)c3cccc([N+](=O)[O-])c3)cccn12` (centres unmarked) [Compound 72], in experiment [2], the EC50 fell in the range of 51 to 100 µM.
As to `COc1ccc(-c2nc3c(C(=O)NC(CC(=O)O)c4cccc([N+](=O)[O-])c4)cccn3c2NCc2ccccc2)cc1[N+](=O)[O-]` (centres unmarked) [Compound 73], in experiment [2], the EC50 was in the range of 51 to 100 µM.
The same measure, in the same setting: under `Cc1cccc(C)c1Nc1c(-c2ccc(C#N)cc2)nc2c(C(=O)NC(CC(=O)O)c3cccc([N+](=O)[O-])c3)cccn12` (centres unmarked) [Compound 74] stands > 150 µM; under `CCCCNc1c(-c2ccc(OC)c([N+](=O)[O-])c2)nc2c(C(=O)NC(C)C(=O)O)cccn12` (centres unmarked) [Compound 75], 51 to 100 µM.
Turning to `COc1ccc(-c2nc3c(C(=O)NC(C)C(=O)O)cccn3c2NCc2ccccc2)cc1[N+](=O)[O-]` (centres unmarked) [Compound 76], the EC50 in experiment [2] is < 50 µM.
As for `CC(C)(C)Nc1c(-c2ccc(F)cc2)nc2c(C(=O)NC(CC(=O)O)C3CCCCC3)cccn12` (centres unmarked) [Compound 78], the EC50 in experiment [2] is 101 to 150 µM.
Regarding `O=C(O)CC(NC(=O)c1cccn2c(NCc3ccccc3)c(-c3ccc(F)cc3)nc12)C1CCCCC1` (centres unmarked) [Compound 79], the EC50 in experiment [2] was 51 to 100 µM.
Regarding `COc1ccc(-c2nc3cc(C(=O)NC(CC(=O)O)C4CCCCC4)ccn3c2NC2CCCCC2)cc1OC` (centres unmarked) [Compound 80], the EC50 in experiment [2] lay in the range of 51 to 100 µM.
Regarding `Cc1ccc(C(CC(=O)O)NC(=O)c2ccn3c(NC4CCCCC4)c(-c4ccc(C#N)cc4)nc3c2)cc1` (centres unmarked) [Compound 81], in experiment [2], the EC50 is 51 to 100 µM.
Regarding `Nc1ccc(-c2nc3ccc(-c4nc5ccc(N)cc5[nH]4)cc3[nH]2)cc1` [Compound 83], the EC50 in experiment [2] was > 150 µM.
Consider `Nc1ccc(C(=O)Nc2nc3cc4sc(NC(=O)c5ccc(N)cc5)nc4cc3s2)cc1` [Compound 86], for which the IC50 (in general, the concentration needed to halve the response being measured) in experiment [2] was 51 to 100 µM.
Consider `Cc1ccccc1C(=O)N1CCN(C(=O)c2cccn3c(NCc4ccccc4)c(C(C)C)nc23)CC1` [Compound 87], for which the half-maximal inhibitory concentration (IC50) in experiment [2] lay in the range of 101 to 150 µM.
On to `CN(C)c1ccc(-c2nc3ccc(C(=O)NCC(=O)NCC4CC4)cn3c2NC2CCCCC2)cc1` [Compound 88], for which the half-maximal inhibitory concentration (IC50) in experiment [2] is < 50 µM.
Take `Cc1cc(C(=O)Nc2ccc(-c3nc4ccc(C(=O)NCCCN5CCCC5=O)cn4c3NC3CCCCC3)cc2)no1` [Compound 89]: the half-inhibitory concentration (IC50) in experiment [2] was in the range of 101 to 150 µM.

The values are drawn from US7998974B2, “Fused heterocyclic compounds and their use as sirtuin modulators” (Sirtris Pharmaceuticals, Inc., priority 2005, dated 2011).
